Assay results: ChEMBL document CHEMBL1151193, “Ancistrotanzanine C and related 5,1'- and 7,3'-coupled naphthylisoquinoline alkaloids from Ancistrocladus tanzaniensis” (J Nat Prod, 2004)
Converted amounts (≈) assume the structure as drawn.

Key:
Trypanosoma cruzi = test: Antitrypanosomal activity against Trypanosoma cruzi; assay type: functional, organism-based
[1] = tested on: Trypanosoma brucei rhodesiense; test: Antitrypanosomal activity against Trypanosoma brucei rhodesiense; assay type: functional, organism-based
Leishmania donovani = test: Antileishmanial activity against Leishmania donovani; assay type: functional, organism-based
Plasmodium falciparum [2] = test: Antiplasmodial activity against chloroquine-resistant Plasmodium falciparum K1; assay type: functional, organism-based
Plasmodium falciparum [3] = test: Antiplasmodial activity against chloroquine-sensitive Plasmodium falciparum 3D7; assay type: functional, organism-based
[4] = Cytotoxicity against rat L6 cells; assay type: cell-based; settings: read-out: MIC
L6 = test: Cytotoxicity against Leishmania donovani infected rat L6 cells; assay type: cell-based

Structure (SMILES) | IC50 (Trypanosoma cruzi) | IC50 [1] | IC50 (Leishmania donovani) | IC50 (Plasmodium falciparum [2]) | IC50 (Plasmodium falciparum [3]) | MCC [4] | Activity (L6)
COc1cc(OC)c(-c2c(C)cc(OC)c3c(OC)cccc23)c2c1C(C)=N[C@@H](C)C2 | 60.5 µg/mL (≈ 144 µM) | 5.2 µg/mL (≈ 12.4 µM) | 30 µg/mL (≈ 71.5 µM) | 2.2 µg/mL (≈ 5.24 µM) | 5.4 µg/mL (≈ 12.9 µM) | > 90 µg/mL | 
COc1cc2c(c(OC)c1-c1c(C)cc3cccc(OC)c3c1O)C(C)=N[C@@H](C)C2 [ANCISTROCLADIDINE] | 23.4 µg/mL (≈ 57.7 µM) | 2 µg/mL (≈ 4.93 µM) | 2.9 µg/mL (≈ 7.15 µM) | 0.3 µg/mL (≈ 0.74 µM) | 1.9 µg/mL (≈ 4.69 µM) | 28.3 µg/mL | 
COc1c(-c2c(C)cc3cccc(OC)c3c2O)c(O)cc2c1[C@@H](C)N(C)[C@@H](C)C2 [ANCISTROTANZANINE C] | 14 µg/mL (≈ 34.4 µM) | 1.3 µg/mL (≈ 3.19 µM) |  | 0.1 µg/mL (≈ 0.245 µM) | 4.2 µg/mL (≈ 10.3 µM) | 40.7 µg/mL | Toxic
COc1cc2c(c(OC)c1-c1c(C)cc3cccc(OC)c3c1O)[C@@H](C)N(C)[C@@H](C)C2 [ANCISTROTECTORINE] | 4.3 µg/mL (≈ 10.2 µM) | 4.3 µg/mL (≈ 10.2 µM) |  | 0.7 µg/mL (≈ 1.66 µM) | 9.1 µg/mL (≈ 21.6 µM) | 19.9 µg/mL | Toxic
O=C(Cn1ccnc1[N+](=O)[O-])NCc1ccccc1 [BENZNIDAZOLE] | 0.29 µg/mL (≈ 1.11 µM) |  |  |  |  |  | 
Nc1nc(N)nc(Nc2ccc([As]3SCC(CO)S3)cc2)n1 (configuration not stated) [MELARSOPROL] |  | 0.0031 µg/mL |  |  |  |  | 
COc1cc(OC)c2c(c1-c1c(C)cc(OC)c3c(OC)cccc13)C[C@H](C)N(C)[C@H]2C [O,N-Dimethylancistrocladine] | 65.3 µg/mL (≈ 150 µM) | 5.4 µg/mL (≈ 12.4 µM) |  | 3.6 µg/mL (≈ 8.27 µM) | 34.1 µg/mL (≈ 78.3 µM) | 42.9 µg/mL | Toxic
